pKd: −log10 of the molar value.
Experiments:
[1] = molecular target: Phosphatidylinositol 4,5-bisphosphate 3-kinase catalytic subunit alpha isoform (Homo sapiens, UniProt P42336); assay: KINOMEscan Enzyme Binding Assays
Method: (§1) Kinase enzyme binding affinities of compounds disclosed herein were determined using the KINOMEscan technology performed by DiscoveRx Corporation, San Diego, Calif., USA (www.kinomescan.com).

[2] = molecular target: Phosphatidylinositol 4,5-bisphosphate 3-kinase catalytic subunit beta isoform (Homo sapiens, UniProt P42338); assay: KINOMEscan Enzyme Binding Assays
Phosphatidylinositol 4,5-bisphosphate 3-kinase catalytic subunit beta isoform, sequence (P42338 whole entry, canonical isoform): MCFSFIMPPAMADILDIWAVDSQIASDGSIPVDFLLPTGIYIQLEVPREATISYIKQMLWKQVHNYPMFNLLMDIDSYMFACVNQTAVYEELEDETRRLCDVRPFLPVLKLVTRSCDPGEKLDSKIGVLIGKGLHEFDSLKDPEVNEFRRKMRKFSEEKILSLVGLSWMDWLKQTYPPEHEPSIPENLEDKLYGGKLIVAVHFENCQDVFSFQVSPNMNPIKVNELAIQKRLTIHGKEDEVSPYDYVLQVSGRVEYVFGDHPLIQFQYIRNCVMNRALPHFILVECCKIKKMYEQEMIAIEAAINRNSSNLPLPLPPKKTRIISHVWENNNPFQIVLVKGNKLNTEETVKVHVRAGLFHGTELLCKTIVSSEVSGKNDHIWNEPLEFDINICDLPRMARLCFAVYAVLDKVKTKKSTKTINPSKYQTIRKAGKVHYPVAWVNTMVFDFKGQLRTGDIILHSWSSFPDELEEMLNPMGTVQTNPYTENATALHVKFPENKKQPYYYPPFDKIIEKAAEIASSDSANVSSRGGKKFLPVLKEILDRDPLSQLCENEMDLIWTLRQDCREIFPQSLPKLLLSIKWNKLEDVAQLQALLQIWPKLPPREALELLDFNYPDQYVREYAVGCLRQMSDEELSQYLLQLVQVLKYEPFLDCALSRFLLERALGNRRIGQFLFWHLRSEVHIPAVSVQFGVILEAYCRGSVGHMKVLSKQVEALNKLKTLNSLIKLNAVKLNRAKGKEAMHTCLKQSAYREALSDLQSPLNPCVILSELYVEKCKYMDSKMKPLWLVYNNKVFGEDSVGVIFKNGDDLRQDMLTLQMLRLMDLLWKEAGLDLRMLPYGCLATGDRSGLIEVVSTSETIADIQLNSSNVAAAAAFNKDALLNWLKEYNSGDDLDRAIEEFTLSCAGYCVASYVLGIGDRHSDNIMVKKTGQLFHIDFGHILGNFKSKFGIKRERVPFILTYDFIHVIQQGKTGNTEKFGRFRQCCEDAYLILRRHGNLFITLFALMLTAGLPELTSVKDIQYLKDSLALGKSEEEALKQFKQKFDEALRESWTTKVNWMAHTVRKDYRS
Method: as §1

Phosphatidylinositol 4,5-bisphosphate 3-kinase catalytic subunit alpha isoform, sequence (P42336 whole entry, canonical isoform): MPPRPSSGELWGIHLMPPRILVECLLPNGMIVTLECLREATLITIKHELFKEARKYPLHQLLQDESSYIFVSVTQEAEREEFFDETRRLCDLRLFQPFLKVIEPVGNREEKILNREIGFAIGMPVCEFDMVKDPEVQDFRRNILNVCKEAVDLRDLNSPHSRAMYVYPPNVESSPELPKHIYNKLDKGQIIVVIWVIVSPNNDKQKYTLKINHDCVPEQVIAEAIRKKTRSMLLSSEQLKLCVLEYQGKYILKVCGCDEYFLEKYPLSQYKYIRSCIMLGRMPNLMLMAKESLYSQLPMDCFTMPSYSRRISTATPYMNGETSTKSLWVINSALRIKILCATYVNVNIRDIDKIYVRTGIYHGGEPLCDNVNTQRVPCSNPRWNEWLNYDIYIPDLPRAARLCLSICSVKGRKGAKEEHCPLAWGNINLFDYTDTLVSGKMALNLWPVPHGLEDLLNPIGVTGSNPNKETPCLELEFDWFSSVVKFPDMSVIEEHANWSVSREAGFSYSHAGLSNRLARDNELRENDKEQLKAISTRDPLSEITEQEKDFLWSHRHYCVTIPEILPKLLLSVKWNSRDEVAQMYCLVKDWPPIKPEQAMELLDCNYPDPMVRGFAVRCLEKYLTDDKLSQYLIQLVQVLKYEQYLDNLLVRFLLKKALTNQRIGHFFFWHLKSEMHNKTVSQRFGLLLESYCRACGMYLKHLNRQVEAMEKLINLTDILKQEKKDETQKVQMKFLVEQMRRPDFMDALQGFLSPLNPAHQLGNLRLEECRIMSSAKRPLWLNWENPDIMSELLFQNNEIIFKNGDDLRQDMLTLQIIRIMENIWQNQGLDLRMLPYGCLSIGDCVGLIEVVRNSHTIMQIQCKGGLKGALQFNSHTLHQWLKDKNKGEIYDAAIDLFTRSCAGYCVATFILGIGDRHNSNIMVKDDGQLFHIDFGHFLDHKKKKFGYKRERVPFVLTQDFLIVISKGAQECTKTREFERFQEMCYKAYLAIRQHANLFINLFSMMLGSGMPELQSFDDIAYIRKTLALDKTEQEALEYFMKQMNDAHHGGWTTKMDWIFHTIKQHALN

pKd [1]	pKd [2]	SMILES
6.05	8.72	Cc1c(Cc2c(CO)nc3c(-c4cnc[nH]4)cc(N4CCOCC4)nn23)cccc1C(F)(F)F [US10087187, Compound 19]
5.23	8.21	CCc1c(F)cccc1Cc1c(CNCCO)nc2c(N)cc(N3CCOCC3)nn12 [US10087187, Compound 101]

From BindingDB's records for patent US10087187 (Janssen Pharmaceutica, 2018)
